The values that follow come from patent US5442065A, “Synthesis of tetrahydroquinoline enediyne core analogs of dynemicin” (Board of Regents, The University of Texas System, priority 1993, dated 1995).

This test relates to M109 tumor cells. Description: M109 solid tumor assay, five injections every two days (compared with neocarzinostatin and esperamicin A1). It counts as in vivo, female mice. The conditions noted are these: for T/C value: reference compounds, dose not given; for lifespan and tumor growth delay (in words): standard compounds, solid tumor. On the procedure: This assay involves development of a solid tumor in a mouse by injection of M109 tumor cells under the skin of the animal. Solid tumors, typically elliptical in shape, rapidly develop on the flank of the mouse at the site of injection. Progress of the tumor is determined by its size which is measured across each axis of the elongated mass. Straightforward computations of tumor volume combined with an assumed density of 1 g per cc yields a weight estimate which is accepted as an indication of the progress of tumor growth. Increase in lifespan (T/C values) of the animal and delay in tumor growth (T-C) to reach a predetermined size (typically measured as weight of the tumor) are generally accepted by those of skill in the art as endpoint parameters. […] In the particular M109 assay described and used to test the novel dynemicin analogs, the median time to establish a baseline tumor burden (arbitrarily set at 1 g tumor) was 4 days.
A standard M109 solid tumor assay was set up to compare compound 5582 and 4229 with neocarzinostatin and esperamicin A1. Female mice were injected subcutaneously with 0.1 mL of a 0.2% brei of M109 tumor cells, prepared from 2 g tumor per 100 mL PBS (phosphate buffered saline).
In another test, compounds 5582 and 4229 were evaluated in mice implanted with M109 on a 5 injection per day every two days schedule beginning on day 1 post implant and compared with SC tumored mice.

esperamicin A1: the T/C value is given as 11 days; the “lifespan and tumor growth delay (in words)” value is “increased lifespan and delay in tumor growth”.

B1: neocarzinostatin: clinically tested compound; positive reference compound (protein, UniProt P0A3R9 35-147, looked up)
Neocarzinostatin: AAPTATVTPSSGLSDGTVVKVAGAGLQAGTAYDVGQCAWVDTGVLACNPADFSSVTADANGSASTSLTVRRSFEGFLFDGTRWGTVDCTTAACQVGLSDAAGNGPEGVAISFN
modifications: enediyne chromophore
As to B1, the T/C value was 19.3 days; the “lifespan and tumor growth delay (in words)” value is “increased lifespan and delay in tumor growth”.
